Experimental data taken from ChEMBL document CHEMBL3885881, “DrugMatrix”.

Species on record: Rattus norvegicus
Test: DrugMatrix - Regimen: Daily Repeat
Assay type: toxicity, organism-based, Sprague-Dawley
Set-up: regimen Daily Repeat, gender Male, age 6-8 weeks
Details: in vivo, po, route oral GAVAGE, vehicle 100 % WATER; for ABSOLUTE BASOPHIL / ABSOLUTE EOSINOPHIL / ABSOLUTE LYMPHOCYTE / ABSOLUTE MONOCYTE / ABSOLUTE SEGMENTED NEUTROPHIL / BASOPHIL / EOSINOPHIL / ERYTHROCYTE COUNT / HEMATOCRIT / HEMOGLOBIN / LEUKOCYTE COUNT / LYMPHOCYTE / MEAN CORPUSCULAR HEMOGLOBIN / MEAN CORPUSCULAR HEMOGLOBIN CONCENTRATION / MEAN CORPUSCULAR VOLUME / MONOCYTE / NEUTROPHIL / NUCLEATED RED BLOOD CELLS / PLATELET COUNT: tissue Blood; for ALANINE AMINOTRANSFERASE / ALBUMIN / ALKALINE PHOSPHATASE / ASPARTATE AMINOTRANSFERASE / BLOOD UREA NITROGEN / CARBON DIOXIDE / CHLORIDE / CHOLESTEROL / CREATINE PHOSPHOKINASE / CREATININE / GLUCOSE / LACTATE DEHYDROGENASE / LIPASE / PHOSPHORUS / POTASSIUM / SODIUM / TOTAL BILIRUBIN / TOTAL PROTEIN / URIC ACID: tissue Plasma
[1] = 20 mg/kg, 72 h, dose level Low, time 3 day
[2] = 20 mg/kg, 120 h, dose level Low, time 5 day
[3] = 266 mg/kg, 72 h, dose level High, time 3 day
[4] = 266 mg/kg, 120 h, dose level High, time 5 day

In the case of `O=C(NCCN1CCOCC1)c1ccc(Cl)cc1` [MOCLOBEMIDE], the “ABSOLUTE BASOPHIL” value [1] is reported as 0 CELLS/uL, the “ABSOLUTE EOSINOPHIL” value [1] is reported as 175 CELLS/uL and the “ABSOLUTE LYMPHOCYTE” value [1] is reported as 12157.33 CELLS/uL. For the same compound, the “ABSOLUTE MONOCYTE” value [1] was 176.67 CELLS/uL, the “ABSOLUTE SEGMENTED NEUTROPHIL” value [1] was 691 CELLS/uL and the BASOPHIL [1] was 0%. For the same compound, the EOSINOPHIL [1] was 1%, the “ERYTHROCYTE COUNT” value [1] was 5.68 x10E6/uL and the HEMATOCRIT [1] was 34.7%. For the same compound, the HEMOGLOBIN [1] was 13.23 G/DL, the “LEUKOCYTE COUNT” value [1] was 13.2 x10E3/uL and the LYMPHOCYTE [1] was 92.33%. For the same compound, the “MEAN CORPUSCULAR HEMOGLOBIN” value [1] was 23.33 pg, the “MEAN CORPUSCULAR HEMOGLOBIN CONCENTRATION” value [1] was 38.13 G/DL and the “MEAN CORPUSCULAR VOLUME” value [1] was 61.13 fL. The MONOCYTE [1] was 1.33%, the NEUTROPHIL [1] was 5.33% and the “NUCLEATED RED BLOOD CELLS” value [1] was 0 /100WBC. The “PLATELET COUNT” value [1] was 1220 x10E3/uL, the “ALANINE AMINOTRANSFERASE” value [1] was 54.33 u/L and the ALBUMIN [1] was 4.07 G/DL. For the same compound, the “ALKALINE PHOSPHATASE” value [1] was 345 u/L, the “ASPARTATE AMINOTRANSFERASE” value [1] was 110.33 u/L and the “BLOOD UREA NITROGEN” value [1] was 17.33 mg/dL. For the same compound, the “CARBON DIOXIDE” value [1] was 23.67 mmol/L, the CHLORIDE [1] was 102.67 MEQ/L and the CHOLESTEROL [1] was 74 mg/dL. The “CREATINE PHOSPHOKINASE” value [1] was 379 u/L, the CREATININE [1] was 0.2 mg/dL and the GLUCOSE [1] was 174.67 mg/dL. For the same compound, the “LACTATE DEHYDROGENASE” value [1] was 728 u/L, the LIPASE [1] was 9.67 u/L and the PHOSPHORUS [1] was 14.07 mg/dL. The POTASSIUM [1] was 6.99 MEQ/L, the SODIUM [1] was 145.9 MEQ/L and the “TOTAL BILIRUBIN” value [1] was 0.2 mg/dL. For the same compound, the “TOTAL PROTEIN” value [1] was 5.7 G/DL, the “URIC ACID” value [1] was 2.03 mg/dL and the “ABSOLUTE BASOPHIL” value [2] was 0 CELLS/uL. For the same compound, the “ABSOLUTE EOSINOPHIL” value [2] was 0 CELLS/uL, the “ABSOLUTE LYMPHOCYTE” value [2] was 15547 CELLS/uL and the “ABSOLUTE MONOCYTE” value [2] was 117.33 CELLS/uL. The “ABSOLUTE SEGMENTED NEUTROPHIL” value [2] was 1669 CELLS/uL, the BASOPHIL [2] was 0% and the EOSINOPHIL [2] was 0%. For the same compound, the “ERYTHROCYTE COUNT” value [2] was 5.91 x10E6/uL, the HEMATOCRIT [2] was 36.73% and the HEMOGLOBIN [2] was 14.33 G/DL. The “LEUKOCYTE COUNT” value [2] was 17.33 x10E3/uL, the LYMPHOCYTE [2] was 89.67% and the “MEAN CORPUSCULAR HEMOGLOBIN” value [2] was 24.33 pg. For the same compound, the “MEAN CORPUSCULAR HEMOGLOBIN CONCENTRATION” value [2] was 39 G/DL, the “MEAN CORPUSCULAR VOLUME” value [2] was 62.4 fL and the MONOCYTE [2] was 0.67%. For the same compound, the NEUTROPHIL [2] was 9.67%, the “NUCLEATED RED BLOOD CELLS” value [2] was 0 /100WBC and the “PLATELET COUNT” value [2] was 1391.67 x10E3/uL. The “ALANINE AMINOTRANSFERASE” value [2] was 57 u/L, the ALBUMIN [2] was 4.1 G/DL and the “ALKALINE PHOSPHATASE” value [2] was 322.67 u/L. The “ASPARTATE AMINOTRANSFERASE” value [2] was 96.67 u/L, the “BLOOD UREA NITROGEN” value [2] was 15 mg/dL and the “CARBON DIOXIDE” value [2] was 27.33 mmol/L. For the same compound, the CHLORIDE [2] was 101.33 MEQ/L, the CHOLESTEROL [2] was 70.67 mg/dL and the “CREATINE PHOSPHOKINASE” value [2] was 318 u/L. The CREATININE [2] was 0.17 mg/dL, the GLUCOSE [2] was 156.67 mg/dL and the “LACTATE DEHYDROGENASE” value [2] was 488 u/L. The LIPASE [2] was 9.67 u/L, the PHOSPHORUS [2] was 13.7 mg/dL and the POTASSIUM [2] was 6.88 MEQ/L. The SODIUM [2] was 145.17 MEQ/L, the “TOTAL BILIRUBIN” value [2] was 0.17 mg/dL and the “TOTAL PROTEIN” value [2] was 5.83 G/DL. The “URIC ACID” value [2] was 1.63 mg/dL, the “ABSOLUTE BASOPHIL” value [3] was 0 CELLS/uL and the “ABSOLUTE EOSINOPHIL” value [3] was 201.33 CELLS/uL. For the same compound, the “ABSOLUTE LYMPHOCYTE” value [3] was 17920 CELLS/uL, the “ABSOLUTE MONOCYTE” value [3] was 282 CELLS/uL and the “ABSOLUTE SEGMENTED NEUTROPHIL” value [3] was 1130 CELLS/uL. The BASOPHIL [3] was 0%, the EOSINOPHIL [3] was 0.67% and the “ERYTHROCYTE COUNT” value [3] was 5.8 x10E6/uL. The HEMATOCRIT [3] was 36.67%, the HEMOGLOBIN [3] was 14.43 G/DL and the “LEUKOCYTE COUNT” value [3] was 19.53 x10E3/uL. The LYMPHOCYTE [3] was 92%, the “MEAN CORPUSCULAR HEMOGLOBIN” value [3] was 24.93 pg and the “MEAN CORPUSCULAR HEMOGLOBIN CONCENTRATION” value [3] was 39.37 G/DL. The “MEAN CORPUSCULAR VOLUME” value [3] was 63.27 fL, the MONOCYTE [3] was 1.33% and the NEUTROPHIL [3] was 6%. For the same compound, the “NUCLEATED RED BLOOD CELLS” value [3] was 0 /100WBC, the “PLATELET COUNT” value [3] was 1228 x10E3/uL and the “ALANINE AMINOTRANSFERASE” value [3] was 45 u/L. The ALBUMIN [3] was 4.27 G/DL, the “ALKALINE PHOSPHATASE” value [3] was 348 u/L and the “ASPARTATE AMINOTRANSFERASE” value [3] was 85.67 u/L. The “BLOOD UREA NITROGEN” value [3] was 15.67 mg/dL, the “CARBON DIOXIDE” value [3] was 27 mmol/L and the CHLORIDE [3] was 102 MEQ/L. For the same compound, the CHOLESTEROL [3] was 91.67 mg/dL, the “CREATINE PHOSPHOKINASE” value [3] was 407 u/L and the CREATININE [3] was 0.2 mg/dL. The GLUCOSE [3] was 135.33 mg/dL, the “LACTATE DEHYDROGENASE” value [3] was 202.33 u/L and the LIPASE [3] was 9.67 u/L. The PHOSPHORUS [3] was 12.33 mg/dL, the POTASSIUM [3] was 5.98 MEQ/L and the SODIUM [3] was 144.7 MEQ/L. For the same compound, the “TOTAL BILIRUBIN” value [3] was 0.13 mg/dL, the “TOTAL PROTEIN” value [3] was 5.67 G/DL and the “URIC ACID” value [3] was 1.47 mg/dL. The “ABSOLUTE BASOPHIL” value [4] was 0 CELLS/uL, the “ABSOLUTE EOSINOPHIL” value [4] was 57.67 CELLS/uL and the “ABSOLUTE LYMPHOCYTE” value [4] was 16939.67 CELLS/uL. For the same compound, the “ABSOLUTE MONOCYTE” value [4] was 123 CELLS/uL, the “ABSOLUTE SEGMENTED NEUTROPHIL” value [4] was 946.33 CELLS/uL and the BASOPHIL [4] was 0%. For the same compound, the EOSINOPHIL [4] was 0.33%, the “ERYTHROCYTE COUNT” value [4] was 6.33 x10E6/uL and the HEMATOCRIT [4] was 38.47%. For the same compound, the HEMOGLOBIN [4] was 15.33 G/DL, the “LEUKOCYTE COUNT” value [4] was 18.07 x10E3/uL and the LYMPHOCYTE [4] was 93.67%. The “MEAN CORPUSCULAR HEMOGLOBIN” value [4] was 24.23 pg, the “MEAN CORPUSCULAR HEMOGLOBIN CONCENTRATION” value [4] was 39.87 G/DL and the “MEAN CORPUSCULAR VOLUME” value [4] was 60.77 fL. For the same compound, the MONOCYTE [4] was 0.67%, the NEUTROPHIL [4] was 5.33% and the “NUCLEATED RED BLOOD CELLS” value [4] was 0 /100WBC. The “PLATELET COUNT” value [4] was 1501 x10E3/uL, the “ALANINE AMINOTRANSFERASE” value [4] was 44 u/L and the ALBUMIN [4] was 4.3 G/DL. The “ALKALINE PHOSPHATASE” value [4] was 312.33 u/L, the “ASPARTATE AMINOTRANSFERASE” value [4] was 75.67 u/L and the “BLOOD UREA NITROGEN” value [4] was 16 mg/dL. The “CARBON DIOXIDE” value [4] was 26 mmol/L, the CHLORIDE [4] was 100.67 MEQ/L and the CHOLESTEROL [4] was 75.67 mg/dL. The “CREATINE PHOSPHOKINASE” value [4] was 226.33 u/L, the CREATININE [4] was 0.15 mg/dL and the GLUCOSE [4] was 155.33 mg/dL. For the same compound, the “LACTATE DEHYDROGENASE” value [4] was 246.67 u/L, the LIPASE [4] was 10.33 u/L and the PHOSPHORUS [4] was 12.43 mg/dL. For the same compound, the POTASSIUM [4] was 6.84 MEQ/L, the SODIUM [4] was 143.43 MEQ/L and the “TOTAL BILIRUBIN” value [4] was 0.17 mg/dL. The “TOTAL PROTEIN” value [4] was 6.2 G/DL and the “URIC ACID” value [4] was 2.3 mg/dL.
